Data reported in patent publication US9593149B2, “Amylin and calcitonin receptor agonist” (Novo Nordisk A/S, priority 2014, dated 2017).
Values after ≈ are worked out from the molar mass of the structure shown. Numbered stars: 1 amine (or outer) side, 2 acyl side, 3 side chain; on linkers, the order of the positions; unused ones are H or OH. Peptide text beside a SMILES is read from it. * marks the point of attachment. C20 diacid = O=C(O)CCCCCCCCCCCCCCCCCCC(=O)*; C18 diacid = O=C(O)CCCCCCCCCCCCCCCCC(=O)*; γGlu = O=C(O)[C@H](CCC(=O)[*:2])N[*:1]

Assay: Assay (IV) determination of solubility
Type: physicochemical
Procedure: Assay (IV)—Determination of Solubility
The mimylin peptide was dissolved in water at ˜500 nmol/ml and mixed 1:1 with a series of buffers (100 mM glycylglycine pH 3.0, 100 mM glycylglycine pH 4.0, 100 mM glycylglycine pH 5.0, 100 mM bistrispropane pH 6.0, 100 mM bistrispropane pH 6.5, 100 mM bistrispropane pH 7.0, 100 mM bistrispropane pH 7.5, 100 mM bistrispropane pH 8.0).

SMILES | Solubility (pH 3.0) | Solubility (pH 4.0) | Solubility (pH 5.0) | Solubility (pH 6.0) | Solubility (pH 6.5) | Solubility (pH 7.0) | Solubility (pH 7.5) | Solubility (pH 8.0) | solubility at 18 h (pH 4.0) | solubility at 18 h (pH 3.0) | solubility at 18 h (pH 5.0)
CC(C)C[C@H](NC(=O)[C@H](CCC(=O)O)NC(=O)[C@H](Cc1cnc[nH]1)NC(=O)[C@H](CC(C)C)NC(=O)[C@H](CCC(=O)O)NC(=O)[C@H](C)NC(=O)[C@H](CO)NC(=O)[C@H](CC(C)C)NC(=O)[C@H](CCCNC(=N)N)NC(=O)CNC(=O)[C@H](CC(C)C)NC(=O)[C@@H](NC(=O)[C@H](C)NC(=O)[C@@H](NC(=O)[C@H](CO)NC(=O)[C@H](CC(C)C)NC(=O)[C@H](CCC(=O)O)NC(=O)[C@H](CO)NC(=O)[C@H](C)NC(=O)[C@H](CCC(=O)O)NC(=O)CCCCCCCCCCCCCCCCC(=O)O)[C@@H](C)O)C(C)C)C(=O)N[C@@H](C)C(=O)N[C@H](C(=O)N[C@@H](CC(C)C)C(=O)N1CCC[C@H]1C(=O)N1CCC[C@H]1C(=O)N[C@H](C(=O)N[C@@H](CCC(=O)O)C(=O)N[C@H](C(=O)NCC(=O)N1CCC[C@H]1C(=O)N[C@@H](CCC(=O)O)C(=O)N[C@@H](CO)C(=O)N1CCC[C@H]1C(N)=O)[C@@H](C)O)[C@@H](C)O)[C@@H](C)O [compound 31, [N-terminal(C18 diacid), 9V, 25P]mimylin] ({C18 diacid}-EASELSTAVLGRLSAELHELATLPPTETGPESP-NH2) | ≧200 μM | ≧200 μM | ≧200 μM | ≧200 μM | ≧200 μM | ≧200 μM | ≧200 μM | ≧200 μM | – | – | –
CC(C)C[C@H](NC(=O)[C@H](CCC(=O)O)NC(=O)[C@H](Cc1cnc[nH]1)NC(=O)[C@H](CC(C)C)NC(=O)[C@H](CCC(=O)O)NC(=O)[C@H](C)NC(=O)[C@H](CO)NC(=O)[C@H](CC(C)C)NC(=O)[C@H](CCCNC(=N)N)NC(=O)CNC(=O)[C@H](CC(C)C)NC(=O)[C@@H](NC(=O)[C@H](C)NC(=O)[C@@H](NC(=O)[C@H](CO)NC(=O)[C@H](CC(C)C)NC(=O)[C@H](CCC(=O)O)NC(=O)[C@H](CO)NC(=O)[C@H](C)NC(=O)[C@H](CCC(=O)O)NC(=O)CCCCCCCCCCCCCCCCC(=O)O)[C@@H](C)O)C(C)C)C(=O)N[C@@H](C)C(=O)N[C@H](C(=O)N[C@@H](CC(C)C)C(=O)N1CCC[C@H]1C(=O)N[C@@H](CCCNC(=N)N)C(=O)N[C@H](C(=O)N[C@@H](CCC(=O)O)C(=O)N1CCC[C@H]1C(=O)NCC(=O)N1CCC[C@H]1C(=O)N[C@@H](CCC(=O)O)C(=O)N[C@@H](CO)C(=O)N1CCC[C@H]1C(N)=O)[C@@H](C)O)[C@@H](C)O [compound 32, [N-terminal(C18 diacid), 9V, 28P]mimylin] ({C18 diacid}-EASELSTAVLGRLSAELHELATLPRTEPGPESP-NH2) | ≧200 μM | ≧200 μM | ≧200 μM | ≧200 μM | ≧200 μM | ≧200 μM | ≧200 μM | ≧200 μM | – | – | –
CC(C)C[C@H](NC(=O)[C@H](C)NC(=O)[C@H](C)NC(=O)[C@@H](NC(=O)[C@H](CO)NC(=O)[C@H](CC(C)C)NC(=O)[C@H](CCC(=O)O)NC(=O)[C@H](CO)NC(=O)[C@H](C)NC(=O)[C@H](CCC(=O)O)NC(=O)CC[C@H](NC(=O)CCCCCCCCCCCCCCCCCCC(=O)O)C(=O)O)[C@@H](C)O)C(=O)NCC(=O)N[C@@H](CCCNC(=N)N)C(=O)N[C@@H](CC(C)C)C(=O)N[C@@H](CO)C(=O)N[C@@H](C)C(=O)N[C@@H](CCC(=O)O)C(=O)N[C@@H](CC(C)C)C(=O)N[C@@H](Cc1cnc[nH]1)C(=O)N[C@@H](CCC(=O)O)C(=O)N[C@@H](CC(C)C)C(=O)N[C@@H](C)C(=O)N[C@H](C(=O)N[C@@H](Cc1ccc(O)cc1)C(=O)N1CCC[C@H]1C(=O)N[C@@H](CCCNC(=N)N)C(=O)N[C@H](C(=O)N[C@@H](CCC(=O)O)C(=O)N[C@H](C(=O)NCC(=O)N[C@@H](CO)C(=O)NCC(=O)N[C@@H](CO)C(=O)N1CCC[C@H]1C(N)=O)[C@@H](C)O)[C@@H](C)O)[C@@H](C)O [compound 34, [N-terminal(C20 diacid-gGlu), 23Y, 30S, 31G]mimylin] ({C20 diacid-γGlu}-EASELSTAALGRLSAELHELATYPRTETGSGSP-NH2) | ≧200 μM | ≧200 μM | ≧200 μM | ≧200 μM | ≧200 μM | ≧200 μM | ≧200 μM | ≧200 μM | – | – | –
CC(C)C[C@H](NC(=O)[C@H](CCCNC(=N)N)NC(=O)CNC(=O)[C@H](CC(C)C)NC(=O)[C@@H](NC(=O)[C@H](C)NC(=O)[C@@H](NC(=O)[C@H](CO)NC(=O)[C@@H](NC(=O)[C@H](CCC(=O)O)NC(=O)[C@H](CO)NC(=O)[C@H](C)NC(=O)[C@H](CCC(=O)O)NC(=O)CCCCCCCCCCCCCCCCC(=O)O)C(C)C)[C@@H](C)O)C(C)C)C(=O)N[C@@H](CO)C(=O)N[C@@H](C)C(=O)N[C@@H](CCC(=O)O)C(=O)N[C@@H](CC(C)C)C(=O)N[C@@H](Cc1cnc[nH]1)C(=O)N[C@@H](CCC(=O)O)C(=O)N[C@H](C(=O)N[C@@H](C)C(=O)N[C@H](C(=O)N[C@@H](CC(C)C)C(=O)N1CCC[C@H]1C(=O)N[C@@H](CCCNC(=N)N)C(=O)N[C@H](C(=O)N[C@@H](CCC(=O)O)C(=O)N[C@H](C(=O)NCC(=O)N1CCC[C@H]1C(=O)N[C@@H](CCC(=O)O)C(=O)N[C@@H](CO)C(=O)N1CCC[C@H]1C(N)=O)[C@@H](C)O)[C@@H](C)O)[C@@H](C)O)C(C)C [compound 36, [N-terminal(C18 diacid), 5V, 9V, 20V]mimylin] ({C18 diacid}-EASEVSTAVLGRLSAELHEVATLPRTETGPESP-NH2) | – | – | – | ≧200 μM | ≧200 μM | ≧200 μM | ≧200 μM | ≧200 μM | 9 µM (≈ 33.6 µg/mL) | 117 µM (≈ 436 µg/mL) | 10 µM (≈ 37.3 µg/mL)

Second part, the compound after the results:

Solubility (pH 3.0) | Solubility (pH 4.0) | Solubility (pH 5.0) | Solubility (pH 6.0) | Solubility (pH 6.5) | Solubility (pH 7.0) | Solubility (pH 7.5) | Solubility (pH 8.0) | solubility at 18 h (pH 4.0) | solubility at 18 h (pH 3.0) | solubility at 18 h (pH 5.0) | SMILES
≧200 μM | ≧200 μM | ≧200 μM | ≧200 μM | ≧200 μM | ≧200 μM | ≧200 μM | ≧200 μM | – | – | – | CC(C)C[C@H](NC(=O)[C@H](CCC(=O)O)NC(=O)[C@H](Cc1cnc[nH]1)NC(=O)[C@H](CC(C)C)NC(=O)[C@H](CCC(=O)O)NC(=O)[C@H](C)NC(=O)[C@H](CO)NC(=O)[C@H](CC(C)C)NC(=O)[C@H](CCCNC(=N)N)NC(=O)CNC(=O)[C@H](CC(C)C)NC(=O)[C@@H](NC(=O)[C@H](C)NC(=O)[C@@H](NC(=O)[C@H](CO)NC(=O)[C@H](CC(C)C)NC(=O)[C@@H]1CCCN1C(=O)[C@H](CO)NC(=O)[C@H](C)NC(=O)[C@H](CCC(=O)O)NC(=O)CCCCCCCCCCCCCCCCC(=O)O)[C@@H](C)O)C(C)C)C(=O)N[C@@H](C)C(=O)N[C@H](C(=O)N[C@@H](CC(C)C)C(=O)N1CCC[C@H]1C(=O)N[C@@H](CCCNC(=N)N)C(=O)N[C@H](C(=O)N[C@@H](CCC(=O)O)C(=O)N[C@H](C(=O)NCC(=O)N1CCC[C@H]1C(=O)N[C@@H](CCC(=O)O)C(=O)N[C@@H](CO)C(=O)N1CCC[C@H]1C(N)=O)[C@@H](C)O)[C@@H](C)O)[C@@H](C)O [compound 30, [N-terminal(C18 diacid), 4P, 9V]mimylin] ({C18 diacid}-EASPLSTAVLGRLSAELHELATLPRTETGPESP-NH2)
≧200 μM | – | ≧200 μM | ≧200 μM | ≧200 μM | ≧200 μM | ≧200 μM | ≧200 μM | 1 µM (≈ 3.69 µg/mL) | – | – | CC(C)C[C@H](NC(=O)[C@H](CCC(=O)O)NC(=O)[C@H](C)NC(=O)[C@H](CO)NC(=O)[C@H](CC(C)C)NC(=O)[C@H](CCCNC(=N)N)NC(=O)CNC(=O)[C@H](CC(C)C)NC(=O)[C@@H](NC(=O)[C@H](C)NC(=O)[C@@H](NC(=O)[C@H](CO)NC(=O)[C@H](CC(C)C)NC(=O)[C@H](CCC(=O)O)NC(=O)[C@H](CO)NC(=O)[C@H](C)NC(=O)[C@H](CCC(=O)O)NC(=O)CCCCCCCCCCCCCCCCC(=O)O)[C@@H](C)O)C(C)C)C(=O)N[C@@H](C)C(=O)N[C@@H](CCC(=O)O)C(=O)N[C@@H](CC(C)C)C(=O)N[C@@H](C)C(=O)N[C@H](C(=O)N[C@@H](CC(C)C)C(=O)N1CCC[C@H]1C(=O)N[C@@H](CCCNC(=N)N)C(=O)N[C@H](C(=O)N[C@@H](CCC(=O)O)C(=O)N[C@H](C(=O)NCC(=O)N1CCC[C@H]1C(=O)N[C@@H](CCC(=O)O)C(=O)N[C@@H](CO)C(=O)N1CCC[C@H]1C(N)=O)[C@@H](C)O)[C@@H](C)O)[C@@H](C)O [compound 33, [N-terminal(C18 diacid), 9V, 18A]mimylin] ({C18 diacid}-EASELSTAVLGRLSAELAELATLPRTETGPESP-NH2)
≧200 μM | ≧200 μM | ≧200 μM | ≧200 μM | ≧200 μM | ≧200 μM | ≧200 μM | ≧200 μM | – | – | – | CC(C)C[C@H](NC(=O)[C@H](C)NC(=O)[C@H](C)NC(=O)[C@@H](NC(=O)[C@H](CO)NC(=O)[C@H](CC(C)C)NC(=O)[C@H](CCC(=O)O)NC(=O)[C@H](CO)NC(=O)[C@H](C)NC(=O)CC[C@H](NC(=O)CCCCCCCCCCCCCCCCC(=O)O)C(=O)O)[C@@H](C)O)C(=O)NCC(=O)N[C@@H](CCCNC(=N)N)C(=O)N[C@@H](CC(C)C)C(=O)N[C@@H](CO)C(=O)N[C@@H](C)C(=O)N[C@@H](CCC(=O)O)C(=O)N[C@@H](CC(C)C)C(=O)N[C@@H](Cc1cnc[nH]1)C(=O)N[C@@H](CCC(=O)O)C(=O)N[C@@H](CC(C)C)C(=O)N[C@@H](C)C(=O)N[C@H](C(=O)N[C@@H](CC(C)C)C(=O)N1CCC[C@H]1C(=O)N[C@@H](CCCNC(=N)N)C(=O)N[C@H](C(=O)N[C@@H](CCC(=O)O)C(=O)N[C@H](C(=O)NCC(=O)N[C@@H](CO)C(=O)N1CCC[C@H]1C(=O)N[C@@H](CO)C(=O)N1CCC[C@H]1C(N)=O)[C@@H](C)O)[C@@H](C)O)[C@@H](C)O [compound 35, [N-terminal(C18 diacid-gGlu), des1, 30S, 31P]mimylin] ({C18 diacid-γGlu}-ASELSTAALGRLSAELHELATLPRTETGSPSP-NH2)
